Assay results as given in ChEMBL document CHEMBL3885881, “DrugMatrix”.

Organism: Rattus norvegicus
Assay: DrugMatrix - Regimen: Daily Repeat
Assay type: toxicity, organism-based, Sprague-Dawley
Design: regimen Daily Repeat, gender Male, age 6-8 weeks
Conditions: in vivo, iv, vehicle 100 % SALINE; for ABSOLUTE BASOPHIL / ABSOLUTE EOSINOPHIL / ABSOLUTE LYMPHOCYTE / ABSOLUTE MONOCYTE / ABSOLUTE SEGMENTED NEUTROPHIL / BASOPHIL / EOSINOPHIL / ERYTHROCYTE COUNT / HEMATOCRIT / HEMOGLOBIN / LEUKOCYTE COUNT / LYMPHOCYTE / MEAN CORPUSCULAR HEMOGLOBIN / MEAN CORPUSCULAR HEMOGLOBIN CONCENTRATION / MEAN CORPUSCULAR VOLUME / MONOCYTE / NEUTROPHIL / NUCLEATED RED BLOOD CELLS / PLATELET COUNT: tissue Blood; for ALANINE AMINOTRANSFERASE / ALBUMIN / ALKALINE PHOSPHATASE / ASPARTATE AMINOTRANSFERASE / BLOOD UREA NITROGEN / CARBON DIOXIDE / CHLORIDE / CHOLESTEROL / CREATINE PHOSPHOKINASE / CREATININE / GLUCOSE / LACTATE DEHYDROGENASE / LIPASE / PHOSPHORUS / POTASSIUM / SODIUM / TOTAL BILIRUBIN / TOTAL PROTEIN / URIC ACID: tissue Plasma
[1] = 0.5 mg/kg, 120 h, dose level Low, time 5 day
[2] = […], 72 h, dose 1.7 mg/Kg, dose level High, time 3 day
[3] = […], 120 h, dose 1.7 mg/Kg, dose level High, time 5 day

Compound: CO[C@@]12[C@H](COC(N)=O)C3=C(C(=O)C(C)=C(N)C3=O)N1C[C@@H]1N[C@@H]12 [MITOMYCIN]
- ABSOLUTE BASOPHIL [1]: 0 CELLS/uL
- ABSOLUTE EOSINOPHIL [1]: 31 CELLS/uL
- ABSOLUTE LYMPHOCYTE [1]: 7760.33 CELLS/uL
- ABSOLUTE MONOCYTE [1]: 22.67 CELLS/uL
- ABSOLUTE SEGMENTED NEUTROPHIL [1]: 286 CELLS/uL
- BASOPHIL [1]: 0%
- EOSINOPHIL [1]: 0.33%
- ERYTHROCYTE COUNT [1]: 6.12 x10E6/uL
- HEMATOCRIT [1]: 36.83%
- HEMOGLOBIN [1]: 14.33 G/DL
- LEUKOCYTE COUNT [1]: 8.1 x10E3/uL
- LYMPHOCYTE [1]: 96%
- MEAN CORPUSCULAR HEMOGLOBIN [1]: 23.4 pg
- MEAN CORPUSCULAR HEMOGLOBIN CONCENTRATION [1]: 38.9 G/DL
- MEAN CORPUSCULAR VOLUME [1]: 60.2 fL
- MONOCYTE [1]: 0.33%
- NEUTROPHIL [1]: 3.33%
- NUCLEATED RED BLOOD CELLS [1]: 0.67 /100WBC
- PLATELET COUNT [1]: 1302.33 x10E3/uL
- ALANINE AMINOTRANSFERASE [1]: 47.33 u/L
- ALBUMIN [1]: 4.03 G/DL
- ALKALINE PHOSPHATASE [1]: 285.67 u/L
- ASPARTATE AMINOTRANSFERASE [1]: 78 u/L
- BLOOD UREA NITROGEN [1]: 16.33 mg/dL
- CARBON DIOXIDE [1]: 29.33 mmol/L
- CHLORIDE [1]: 101.67 MEQ/L
- CHOLESTEROL [1]: 67.33 mg/dL
- CREATINE PHOSPHOKINASE [1]: 203 u/L
- CREATININE [1]: 0.34 mg/dL
- GLUCOSE [1]: 154 mg/dL
- LACTATE DEHYDROGENASE [1]: 120 u/L
- LIPASE [1]: 11 u/L
- PHOSPHORUS [1]: 10.5 mg/dL
- POTASSIUM [1]: 4.84 MEQ/L
- SODIUM [1]: 145.67 MEQ/L
- TOTAL BILIRUBIN [1]: 0.13 mg/dL
- TOTAL PROTEIN [1]: 5.83 G/DL
- URIC ACID [1]: 0.57 mg/dL
- ABSOLUTE BASOPHIL [2]: 0 CELLS/uL
- ABSOLUTE EOSINOPHIL [2]: 31.67 CELLS/uL
- ABSOLUTE LYMPHOCYTE [2]: 7497.33 CELLS/uL
- ABSOLUTE MONOCYTE [2]: 0 CELLS/uL
- ABSOLUTE SEGMENTED NEUTROPHIL [2]: 1104.33 CELLS/uL
- BASOPHIL [2]: 0%
- EOSINOPHIL [2]: 0.33%
- ERYTHROCYTE COUNT [2]: 5.47 x10E6/uL
- HEMATOCRIT [2]: 33.9%
- HEMOGLOBIN [2]: 13.43 G/DL
- LEUKOCYTE COUNT [2]: 8.63 x10E3/uL
- LYMPHOCYTE [2]: 86.67%
- MEAN CORPUSCULAR HEMOGLOBIN [2]: 24.6 pg
- MEAN CORPUSCULAR HEMOGLOBIN CONCENTRATION [2]: 39.63 G/DL
- MEAN CORPUSCULAR VOLUME [2]: 62.07 fL
- MONOCYTE [2]: 0%
- NEUTROPHIL [2]: 13%
- NUCLEATED RED BLOOD CELLS [2]: 0 /100WBC
- PLATELET COUNT [2]: 1626.67 x10E3/uL
- ALANINE AMINOTRANSFERASE [2]: 35.67 u/L
- ALBUMIN [2]: 4.03 G/DL
- ALKALINE PHOSPHATASE [2]: 211 u/L
- ASPARTATE AMINOTRANSFERASE [2]: 72.33 u/L
- BLOOD UREA NITROGEN [2]: 13.33 mg/dL
- CARBON DIOXIDE [2]: 29.33 mmol/L
- CHLORIDE [2]: 99.33 MEQ/L
- CHOLESTEROL [2]: 71.33 mg/dL
- CREATINE PHOSPHOKINASE [2]: 245.67 u/L
- CREATININE [2]: 0.15 mg/dL
- GLUCOSE [2]: 145.33 mg/dL
- LACTATE DEHYDROGENASE [2]: 173 u/L
- LIPASE [2]: 8 u/L
- PHOSPHORUS [2]: 11.53 mg/dL
- POTASSIUM [2]: 5.56 MEQ/L
- SODIUM [2]: 141.2 MEQ/L
- TOTAL BILIRUBIN [2]: 0.1 mg/dL
- TOTAL PROTEIN [2]: 5.6 G/DL
- URIC ACID [2]: 1.6 mg/dL
- ABSOLUTE BASOPHIL [3]: 0 CELLS/uL
- ABSOLUTE EOSINOPHIL [3]: 0 CELLS/uL
- ABSOLUTE LYMPHOCYTE [3]: 2370 CELLS/uL
- ABSOLUTE MONOCYTE [3]: 67 CELLS/uL
- ABSOLUTE SEGMENTED NEUTROPHIL [3]: 663 CELLS/uL
- BASOPHIL [3]: 0%
- EOSINOPHIL [3]: 0%
- ERYTHROCYTE COUNT [3]: 6.15 x10E6/uL
- HEMATOCRIT [3]: 38.97%
- HEMOGLOBIN [3]: 14.9 G/DL
- LEUKOCYTE COUNT [3]: 3.1 x10E3/uL
- LYMPHOCYTE [3]: 78.33%
- MEAN CORPUSCULAR HEMOGLOBIN [3]: 24.23 pg
- MEAN CORPUSCULAR HEMOGLOBIN CONCENTRATION [3]: 38.23 G/DL
- MEAN CORPUSCULAR VOLUME [3]: 63.33 fL
- MONOCYTE [3]: 2%
- NEUTROPHIL [3]: 19.67%
- NUCLEATED RED BLOOD CELLS [3]: 0 /100WBC
- PLATELET COUNT [3]: 1554 x10E3/uL
- ALANINE AMINOTRANSFERASE [3]: 21.33 u/L
- ALBUMIN [3]: 3.37 G/DL
- ALKALINE PHOSPHATASE [3]: 94.67 u/L
- ASPARTATE AMINOTRANSFERASE [3]: 57 u/L
- BLOOD UREA NITROGEN [3]: 15 mg/dL
- CARBON DIOXIDE [3]: 30.67 mmol/L
- CHLORIDE [3]: 100.33 MEQ/L
- CHOLESTEROL [3]: 84.67 mg/dL
- CREATINE PHOSPHOKINASE [3]: 265.67 u/L
- CREATININE [3]: 0.26 mg/dL
- GLUCOSE [3]: 154 mg/dL
- LACTATE DEHYDROGENASE [3]: 136.67 u/L
- LIPASE [3]: 10.67 u/L
- PHOSPHORUS [3]: 8.73 mg/dL
- POTASSIUM [3]: 4.86 MEQ/L
- SODIUM [3]: 144.3 MEQ/L
- TOTAL BILIRUBIN [3]: 0.1 mg/dL
- TOTAL PROTEIN [3]: 5.13 G/DL
- URIC ACID [3]: 0.57 mg/dL
